Measured values reported in patent US7786141B2 (Vertex Pharmaceuticals Incorporated, priority 2004, dated 2010).
Read-outs that look alike come from different tables or passages of the source.

Experiments:
[1] = molecular target: T1, M4 muscarinic receptor (Homo sapiens, UniProt P08173); assay: Functional mobilization of intracellular calcium (FLIPR) in M4-CHO cells; type: cell-based
T1 construct: expressed in transfected cells; host or cells: CHO (M4-CHO)
T1 sequence (P08173 1-479): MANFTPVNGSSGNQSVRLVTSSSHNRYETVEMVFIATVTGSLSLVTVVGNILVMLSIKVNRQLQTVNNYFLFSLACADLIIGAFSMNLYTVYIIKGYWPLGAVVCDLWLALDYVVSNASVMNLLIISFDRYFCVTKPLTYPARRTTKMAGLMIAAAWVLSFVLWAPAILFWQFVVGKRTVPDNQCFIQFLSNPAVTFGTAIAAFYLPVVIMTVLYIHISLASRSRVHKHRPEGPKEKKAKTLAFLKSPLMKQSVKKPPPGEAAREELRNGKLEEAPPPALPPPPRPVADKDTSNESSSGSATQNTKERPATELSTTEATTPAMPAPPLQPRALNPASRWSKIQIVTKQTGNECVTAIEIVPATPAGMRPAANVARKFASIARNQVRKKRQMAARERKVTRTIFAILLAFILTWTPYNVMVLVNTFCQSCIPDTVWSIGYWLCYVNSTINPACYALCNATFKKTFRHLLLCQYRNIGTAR
Summary of the method: (§1)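 Intracellular calcium rise is measured by FLIPR fluorescence over 60 sec in CHO cells carrying human M1 or M4 receptors. Compounds are tested alone as agonists, or pre-incubated 15 min (or co-applied) ahead of carbachol at its EC80 to detect inhibition.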

[2] = molecular target: T2, M1 muscarinic receptor (Homo sapiens, UniProt P11229); assay: Functional mobilization of intracellular calcium (FLIPR) in M1-CHO cells; type: cell-based
T2 construct: expressed in transfected cells; host or cells: CHO (M1-CHO)
T2 sequence (P11229 1-460): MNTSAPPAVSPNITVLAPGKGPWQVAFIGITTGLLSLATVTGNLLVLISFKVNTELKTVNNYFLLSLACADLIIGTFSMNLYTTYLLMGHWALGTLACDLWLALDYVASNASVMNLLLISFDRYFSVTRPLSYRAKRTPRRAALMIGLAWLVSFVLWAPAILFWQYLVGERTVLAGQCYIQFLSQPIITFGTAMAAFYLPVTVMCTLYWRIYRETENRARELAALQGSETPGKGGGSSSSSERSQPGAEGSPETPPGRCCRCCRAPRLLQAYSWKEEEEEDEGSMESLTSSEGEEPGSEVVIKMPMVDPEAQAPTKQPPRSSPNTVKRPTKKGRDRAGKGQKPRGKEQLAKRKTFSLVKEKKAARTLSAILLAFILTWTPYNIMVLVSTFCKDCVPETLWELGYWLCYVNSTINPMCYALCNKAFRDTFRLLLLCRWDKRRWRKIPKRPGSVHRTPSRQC
Summary of the method: as §1

[3] = Table 4, 100% efficacy is the maximum response obtained with the Carbachol control
[4] = Table 4, modulating M4 receptor
[5] = Table 4, modulating M1 receptor
[6] = Table 4, M4 receptor, calcium mobilization (FLIPR)
[7] = Table 4, M1 receptor, calcium mobilization (FLIPR)
[8] = M4 receptor, calcium mobilization
[9] = M4 receptor, calcium mobilization, read-out: M4 Efficacy
[10] = M1 receptor, calcium mobilization
[11] = M1 receptor, calcium mobilization, read-out: M1 Efficacy
[12] = M4-CHO cells, calcium mobilization (FLIPR)
[13] = M4-CHO cells, calcium mobilization (FLIPR), read-out: M4 Efficacy
[14] = M1-CHO cells, calcium mobilization (FLIPR)
[15] = M1-CHO cells, calcium mobilization (FLIPR), read-out: M1 Efficacy

Row | Structure (SMILES) | Emax [1, 3] | M4 Activity [1, 4] | Emax [2, 3] | M1 Activity [2, 5] | M4 Activity [1, 8] | Emax [1, 9] | M1 Activity [2, 10] | Emax [2, 11] | also measured
1 | CC#CCOC(=O)N1CC[C@H](CN2CCC3(CC2)CN(C(=O)N(C)C)c2ccc(F)cc23)C1 [compound 761] | 25 to 100% | xxx (activity was measured to be less than 2.0 μM) | 25 to 100% | xxx (activity was measured to be less than 2.0 μM) | – | – | – | – | –
2 | O=C(O)C1CC2(CCN(C3CCCCC3)CC2)c2ccccc21 (centres unmarked) [compound 612] | 25 to 100% | x (activity was measured to be greater than 5.0 μM) | < 25% | x (activity was measured to be greater than 5.0 μM) | – | – | – | – | –
3 | CCC#CCOC(=O)N1CCC(N2CCC3(CC2)CN(C(C)=O)c2cccc(C)c23)CC1 [compound 825] | < 25% | – | 25 to 100% | – | – | – | – | – | M4 Activity [1, 6]: x (activity was measured to be greater than 5.0 μM); M1 Activity [2, 7]: xxx (activity was measured to be less than 2.0 μM)
4 | CC(=O)N1CC2(CCN(C3CCN(c4nc(C)cs4)CC3)CC2)c2ccccc21 [compound 471] | 25 to 100% | xx (activity was measured to be between 2.0 μM and 5.0 μM) | 25 to 100% | xx (activity was measured to be between 2.0 μM and 5.0 μM) | – | – | – | – | –
5 | CC(=O)N[C@H]1CC2(CCN(CC(=O)N3CC=CC3)CC2)c2ccccc21 [compound 533] | < 25% | x (activity was measured to be greater than 5.0 μM) | < 25% | x (activity was measured to be greater than 5.0 μM) | – | – | – | – | –
6 | CC(=O)N1CC2(CCN(C3CCN(C(=O)OC4CCC4)CC3)CC2)c2cc(C)ccc21 [compound 151] | – | – | – | – | xxx (activity was measured to be less than 0.1 μM) | > 85% | xxx (activity was measured to be less than 0.1 μM) | > 85% | –
7 | COCCN1CC2(CCN(C3CC4CCC(C4)C3)CC2)c2cc(F)ccc21 (centres unmarked) [compound 884] | 25 to 100% | – | 25 to 100% | – | – | – | – | – | M4 Activity [1, 6]: xxx (activity was measured to be less than 2.0 μM); M1 Activity [2, 7]: xxx (activity was measured to be less than 2.0 μM)
8 | CC(=O)N[C@@H]1CC2(CCN([C@H]3C[C@@H]4CC[C@H]3C4)CC2)c2ccccc21 [compound 171] | – | – | – | – | x (activity was measured to be greater than 1.0 μM) | 65 to 85% | xx (activity was measured to be between 0.1 μM and 1.0 μM) | > 85% | –
9 | CCOC(=O)N1CCC(N2CCC3(CC2)C[C@@H](NC(C)=O)c2ccccc23)CC1 [compound 430] | – | – | – | – | – | – | – | – | EC50 [1, 12]: > 1000 nM; Emax [1, 13]: < 65%; EC50 [2, 14]: 100 to 1000 nM; Emax [2, 15]: < 65%
10 | CC(=O)NC1CCC2(CCN(CCC3CCN(C(C)=O)CC3)CC2)c2ccccc21 (centres unmarked) [compound 833] | 25 to 100% | – | 25 to 100% | – | – | – | – | – | M4 Activity [1, 6]: xxx (activity was measured to be less than 2.0 μM); M1 Activity [2, 7]: xxx (activity was measured to be less than 2.0 μM)
11 | CCOC(=O)N1CCC(N2CCC3(CC2)CN(C(=O)c2c(F)cccc2F)c2ccc(F)cc23)CC1 [compound 396] | – | – | – | – | – | – | – | – | EC50 [1, 12]: > 1000 nM; Emax [1, 13]: < 65%; EC50 [2, 14]: 100 to 1000 nM; Emax [2, 15]: < 65%
12 | CCOC(=O)N1CCC(N2CCC3(CC(=O)c4cc(F)ccc43)C2)CC1 (centres unmarked) [compound 765] | < 25% | x (activity was measured to be greater than 5.0 μM) | 25 to 100% | x (activity was measured to be greater than 5.0 μM) | – | – | – | – | –
13 | CCOC(=O)N1CCC(N2CCC3(CC2)CN(C(=O)C2CC2)c2ccc(F)cc23)CC1 [compound 136] | – | – | – | – | xxx (activity was measured to be less than 0.1 μM) | > 85% | xxx (activity was measured to be less than 0.1 μM) | > 85% | –
14 | O=C(O[C@H]1CCOC1)N1C2CCC1CC(N1CCC3(CC1)C(=O)Nc1ccccc13)C2 (some centres unmarked) [compound 301] | – | – | – | – | x (activity was measured to be greater than 1.0 μM) | < 65% | x (activity was measured to be greater than 1.0 μM) | < 65% | –
15 | CCOC(=O)N1C2CCC1CC(N1CCCC3(CC1)CN(C(C)=O)c1ccc(F)cc13)C2 (centres unmarked) [compound 746] | 25 to 100% | xxx (activity was measured to be less than 2.0 μM) | 25 to 100% | xxx (activity was measured to be less than 2.0 μM) | – | – | – | – | –
16 | CC(=O)N[C@H]1CC2(CCN(CC3CCN(C(=O)OC(C)C)CC3)CC2)c2ccccc21 [compound 399] | – | – | – | – | – | – | – | – | EC50 [1, 12]: 100 to 1000 nM; Emax [1, 13]: < 65%; EC50 [2, 14]: 100 to 1000 nM; Emax [2, 15]: 65 to 85%
17 | CCOC(=O)N1CCC(N2CCC3(CC2)CN(C(C)=O)c2c(-c4ccncc4)cccc23)CC1 [compound 677] | < 25% | x (activity was measured to be greater than 5.0 μM) | 25 to 100% | x (activity was measured to be greater than 5.0 μM) | – | – | – | – | –
18 | O=C(N[C@H]1CC2(CCN(CC3CCCCC3)CC2)c2ccccc21)C1CCCC1 [compound 448] | < 25% | xxx (activity was measured to be less than 2.0 μM) | < 25% | x (activity was measured to be greater than 5.0 μM) | – | – | – | – | –
19 | CC(=O)N1CC2(CCN(C3CC[C@@H]4CC[C@@H]3C4)CC2)c2cc(F)ccc21 (some centres unmarked) [compound 251] | – | – | – | – | x (activity was measured to be greater than 1.0 μM) | 65 to 85% | xx (activity was measured to be between 0.1 μM and 1.0 μM) | 65 to 85% | –
20 | CC#CCOC(=O)N1CCC(N2CCC3(CC2)CN(CCOC)c2ccc(F)cc23)CC1 [compound 853] | 25 to 100% | – | 25 to 100% | – | – | – | – | – | M4 Activity [1, 6]: xxx (activity was measured to be less than 2.0 μM); M1 Activity [2, 7]: xxx (activity was measured to be less than 2.0 μM)
21 | CCOC(=O)N1C2CCC1CC(N1CCC3(CC1)CNc1ccc(C)cc13)C2 (centres unmarked) [compound 109] | – | – | – | – | xx (activity was measured to be between 0.1 μM and 1.0 μM) | < 65% | xxx (activity was measured to be less than 0.1 μM) | 65 to 85% | –
22 | CC(=O)N[C@H]1CCC2(CCN([C@@H]3CC4CC[C@@H]3C4)CC2)c2ccccc21 [compound 696] | 25 to 100% | xxx (activity was measured to be less than 2.0 μM) | 25 to 100% | xx (activity was measured to be between 2.0 μM and 5.0 μM) | – | – | – | – | –
23 | CCOC(=O)N1C2CCC1CC(N1CCC3(CC1)CN(C(C)=O)c1ccc(C)cc13)C2 (centres unmarked) [compound 9] | – | – | – | – | x (activity was measured to be greater than 1.0 μM) | 65 to 85% | xxx (activity was measured to be less than 0.1 μM) | 65 to 85% | –
